Details: Liquid

CCC(C)(C)O [2-methylbutan-2-ol]
Details | vapor or sublimation pressure [kPa]
303.29 K | 2.81
303.47 K | 2.85
304.67 K | 3.16
305.75 K | 3.4
305.9 K | 3.43
308.35 K | 4.08
309.12 K | 4.31
309.86 K | 4.55
310.61 K | 4.8
311.64 K | 5.15
312.47 K | 5.43
313.38 K | 5.77
314.17 K | 6.08
315.44 K | 6.59
317.09 K | 7.31
318.64 K | 7.99
319.37 K | 8.36
319.86 K | 8.61
320.32 K | 8.84
321.32 K | 9.36
322.44 K | 9.99
323.15 K | 10.41
323.27 K | 10.49
324.11 K | 11.03
324.91 K | 11.51
325.71 K | 12.03
326.45 K | 12.55
327.18 K | 13.05
327.62 K | 13.36
328.41 K | 13.97
329.33 K | 14.65
330.15 K | 15.31
330.98 K | 15.97
331.8 K | 16.67
332.46 K | 17.29
333.15 K | 17.87
333.26 K | 17.99
333.99 K | 18.65
334.69 K | 19.32
335.45 K | 20.03
336.05 K | 20.67
336.68 K | 21.31
337.31 K | 21.96
337.97 K | 22.63
338.69 K | 23.47
339.15 K | 23.97
339.68 K | 24.67
340.31 K | 25.35
340.83 K | 26
341.39 K | 26.67
341.9 K | 27.33
342.4 K | 27.97
342.92 K | 28.67
343.15 K | 28.95
343.42 K | 29.31
343.94 K | 30.01
344.47 K | 30.67
344.91 K | 31.35
345.39 K | 32.07
345.78 K | 32.67
346.35 K | 33.48
347.18 K | 34.67
347.57 K | 35.32
348.07 K | 36.07
348.49 K | 36.71
348.88 K | 37.36
349.27 K | 38.01
349.64 K | 38.64
350.08 K | 39.32
350.49 K | 39.96
350.83 K | 40.64
351.2 K | 41.31
351.67 K | 42.08
351.95 K | 42.65
352.3 K | 43.35
352.73 K | 44
353.02 K | 44.65
353.15 K | 44.87
353.44 K | 45.35
353.73 K | 45.97
354.1 K | 46.63
354.41 K | 47.28
354.72 K | 47.95
355.11 K | 48.65
355.43 K | 49.31
355.74 K | 49.95
356.09 K | 50.75
356.45 K | 51.36
356.69 K | 52
356.99 K | 52.61
357.35 K | 53.32
357.67 K | 54.03
357.96 K | 54.67
358.25 K | 55.35
358.47 K | 55.95
358.85 K | 56.63
359.15 K | 57.33
359.48 K | 58
359.68 K | 58.59
360.01 K | 59.27
360.21 K | 59.95
360.53 K | 60.59
360.83 K | 61.27
361.11 K | 61.99
361.4 K | 62.61
361.72 K | 63.35
362.01 K | 64.04
362.24 K | 64.67
362.54 K | 65.35
362.84 K | 66
363.07 K | 66.71
363.56 K | 67.92
364.15 K | 69.21
364.62 K | 70.64
365.21 K | 71.99
365.73 K | 73.37
366.16 K | 74.75
366.67 K | 76.05
367.11 K | 77.28
367.53 K | 78.63
368.02 K | 79.97
368.44 K | 81.28
368.83 K | 82.53
369.31 K | 83.93
369.73 K | 85.28
370.15 K | 86.63
370.56 K | 87.97
370.99 K | 89.39
371.39 K | 90.76
371.77 K | 91.99
372.16 K | 93.31
372.56 K | 94.67
372.95 K | 95.99
373.34 K | 97.39
373.73 K | 98.71
